Series [1] deals with Nilaparvata lugens. The series can be described thus: Nilaparvata lugens test (foliar application), outdoor trial rice, Philippines. It counts as in vivo. On the procedure:
Action of the crystalline modification I of the compound of the formula (I) against plant-damaging insects/outdoor trial rice, Philippines
Nilaparvata lugens Test (Foliar Application)
To produce a suitable preparation of active compound, the oil-based suspension concentrate prepared according to Example 2.3 (OD 100 formulation) was diluted with water to the desired concentration. After the desired period of time, the kill in % was determined 100% means that all leafhoppers have been killed; 0% means that none of the leafhoppers have been killed.

Series [2] in a line: Solid-state properties of the crystalline modifications (stability, moisture uptake, grindability). In kind it is physicochemical.

This note sets out measurements from patent US8324253B2, “Crystalline modification of 4-(N-methyl-Z-chloro-5pyridy methylamino)-2, 5-dihydrofuran-2-on” (Bayer Cropscience AG, priority 2006, dated 2012).

With `CN(Cc1ccc(Cl)nc1)C1=CC(=O)OC1` [crystalline modification I, 4-{[(6-chloropyrid-3-yl)methyl](methyl)amino}furan-2(5H)-one], in series [1] (Active compound concentration 200 g/ha, foliar application of OD 100 formulation of Example 2.3 diluted with water, rice, outdoor trial, 100% = all leafhoppers killed), the “Kill rate in % after 14 days” value came out at 100%. The “activity against Nilaparvata lugens (in words)” value in series [1] (foliar application, outdoor trial rice) was “good activity”. In addition, the “thermodynamic stability of the crystalline modification” value in series [2] was “thermodynamically stable”. Further, the grindability entry in series [2] (compared to other crystalline modifications) is “easier to comminute/grind”. In addition, in series [2] (compared to the crystalline modification II), the “tendency to absorb atmospheric moisture” value is listed as “reduced tendency to absorb atmospheric moisture”. For the same compound, in series [2] (prolonged storage), the “conversion into another crystalline modification on storage” value was “does not convert into another crystalline modification”.
On to `CN(Cc1ccc(Cl)nc1)C1=CC(=O)OC1` [crystalline modification II, 4-{[(6-chloropyrid-3-yl)methyl](methyl)amino}furan-2(5H)-one, reference compound], for which the “thermodynamic stability of the crystalline modification” value in series [2] is on record as “metastable”.
